Literature values in patent publication US20090005367A1, “COMPOSITION AND METHOD FOR TREATING ALCOHOLISM AND OTHER SUBSTANCE ADDICTIONS” (priority 2006, published 2009).
Read-outs that look alike come from different tables or passages of the source.

Experiments:
[1] = not given; remark: listed apart in the source
[2] = oral / gastrointestinal tract
[3] = system: aldehyde dehydrogenase; settings: blood, after alcohol ingestion
[4] = not given; remark: listed apart in the source

## Fc1ccccc1C1=NCC(=S)N(CC(F)(F)F)c2ccc(Cl)cc21 [Quazepam]
Parent drug
  Elimination Half-Life: 25 to 100 h

## O=C1Nc2ccc(Cl)cc2C(c2ccccc2Cl)=NC1O (stereo not shown) [Lorazepam]
Parent drug
  Elimination Half-Life: 10 to 20 h

## CNC1=Nc2ccc(Cl)cc2C(c2ccccc2)=[N+]([O-])C1 [Chlordiazepoxide]
Parent drug
  Elimination Half-Life: 5 to 30 h

## Cc1ncc2n1-c1ccc(Cl)cc1C(c1ccccc1F)=NC2 [Midazolam]
Parent drug
  Elimination Half-Life (h): 3 hours (1.8-6

## Cc1nnc2n1-c1ccc(Cl)cc1C(c1ccccc1Cl)=NC2 [Triazolam]
Parent drug
  Elimination Half-Life: 2 h

## N#CCCN1C(=O)C(O)N=C(c2ccccc2F)c2cc(Cl)ccc21 (stereo not shown) [Cinolazepam]
Parent drug
  Elimination Half-Life: 9 h

## O=C1CN=C(c2ccccc2)c2cc([N+](=O)[O-])ccc2N1 [Nitrazepam]
Parent drug
  Elimination Half-Life: 15 to 38 h

## Cc1nnc2n1-c1ccc(Cl)cc1C(c1ccccc1)=NC2 [Alprazolam]
Parent drug
  Elimination Half-Life: 6 to 12 h

## CN1CCN=C(c2ccccc2)c2cc(Cl)ccc21 [Medazepam]
Parent drug
  Elimination Half-Life: 36 to 200 h

## Clc1ccc2c(c1)C(c1ccccc1)=NCc1nncn1-2 [Estazolam]
Parent drug
  Elimination Half-Life: 10 to 24 h

## CN1CCN(/C=C2\N=C3CN=C(c4ccccc4Cl)c4cc([N+](=O)[O-])ccc4N3C2=O)CC1 [Loprazolam]
Parent drug
  Elimination Half-Life: 6 to 12 h

## CN1C(=O)CC(=O)N(c2ccccc2)c2cc(Cl)ccc21 [Clobazam]
Parent drug
  Elimination Half-Life: 12 to 60 h

## CN1C(=O)C(O)N=C(c2ccccc2Cl)c2cc(Cl)ccc21 (stereo not shown) [Lormetazepam]
Parent drug
  Elimination Half-Life: 10 to 12 h

## O=C1CN=C(c2ccccc2Cl)c2cc([N+](=O)[O-])ccc2N1 [Clonazepam]
other
  Elimination Half-Life: 30 to 40 h
Parent drug
  Elimination Half-Life: 18 to 50 h
[1]
  time until full effects occur after ingestion: 1 to 4 h
[1]; in vivo
  duration of action: 30 to 40 h
[2]
  absorption: rapidly and completely absorbed

## O=C1CN=C(c2ccccn2)c2cc(Br)ccc2N1 [Bromazepam]
Parent drug
  Elimination Half-Life: 10 to 20 h

## CC1=CC(=O)N2CC(=O)N(C)c3ccc(Cl)cc3C2(c2ccccc2)O1 (stereo not shown) [Ketazolam]
Parent drug
  Elimination Half-Life: 2 h

## CCN(CC)C(=S)SSC(=S)N(CC)CC [Disulfiram, bis(diethylthiocarbamoyl)disulfide]
[1]
  time until full effects occur after ingestion: 12 h
[1]; after last dose
  time effective following administration of the last dose: approximately one to two
[3]
  concentration of acetaldehyde compared with same amount of alcohol without disulfiram: 5 to 10 times higher

## CN1C(=O)CN=C(C2=CCCCC2)c2cc(Cl)ccc21 [Tetrazepam]
Parent drug
  Elimination Half-Life: 3 to 26 h

## CN1[C@@H]2CC[C@H]1C[C@@H](OC(=O)C(CO)c1ccccc1)C2 (stereo partly shown) [Atropine]
[4]
  excreted in the urine as unchanged drug: 30-50%
